Reference: patent publication US6069167A, “Use of antioxidant agents to treat cholestatic liver disease” (priority 1997, dated 2000)

Legend:
[1] = tested on: liver; experiment: Histology of the liver in the in vivo reversible hepatic injury model; set-up: species or system rat
From the text: The instant invention also provides for an in vivo reversible hepatic injury model animal model, preferably a rodent model, most preferably a rat model. The animal can be dosed with any injurious bile acid or analogs thereof Suitable injurious bile acids include conjugates of chenodeoxycholic acid and lithocholic acid. A particularly suitable injurious bile acid analog is taurochenodeoxycholic acid. The injurious bile acid or analog can be administered by any suitable means, such as injection, oral or rectal administration. The injurious bile acid or analog thereof can be conveniently administered intravenously, particularly intravenous administration in the tail vein. The time of administration should be for less than 10 minutes, preferably approximately 1 to 2 minutes.
These histological findings are similar to those reported in a recently described rat model of continuous jugular vein infusion of TCDC at a rate of 0.4 to 0.6 μmol/min/100 gram over 60 minutes^31. […] However, the model of the instant invention produced similar results at half the TCDC dosages of the continuous TCDC infusion model, and allows for rapid, convenient infusion of TCDC.
Based on these biochemical and histological findings, a suitable time point for the embodiment of the instant invention using TCDC as the toxic bile acid was the 4 hour, 10 μmol/100 gram weight dose.

[2] = tested on: TCDC hepatic toxicity; type: in vivo, male Sprague-Dawley rats; settings: rat, in vivo
From the text: Young adult male Sprague-Dawley rats (150-180 gram weight) purchased from Sasco, Inc. (Omaha, Nebr.) were fed Purina Lab Chow (Ralston Purina Co., Chicago, Ill.) ad libitum for 2-3 weeks and housed in polyethylene cages with stainless steel tops on a 12-hour light-dark cycle. All rats received humane care in compliance with the guidelines of the Animal Use in Research Committee of the University of Colorado Health Sciences Center. […] TCDC is a conjugate of the bile acid most implicated in cholestatic liver injury9,11,12. TCDC was solubilized in 5% dextrose, 10% BSA, and 0.45% normal saline. TCDC was administered while rats were under light methoxyflurane anesthesia as an intravenous bolus of the desired dose in 1 to 2 minutes through the tail vein. TCDC dosing was performed between 7 and 9 am. […] Rats were divided into two treatment groups. One group was pretreated with parenteral Vitamin E (all-rac-alpha tocopherol, […], Hoffmann-LaRoche,Nutley, N.J.). The other group was not pretreated. These rats then received either vehicle or TCDC (10 μmol/[…]) by tail vein injection (as described in Example 1). […] All i.p. injections were administered under light methoxyflurane anesthesia. Following the vitamin E or saline injections, rats were randomly assigned to receive a tail vein bolus injection of either TCDC or vehicle. Rats were sacrificed four hours later and serum was analyzed for AST, ALT, total bilirubin and alkaline phosphatase. […] The serum alpha tocopherol:total lipids ratio (mg/gm) was calculated as an additional index of vitamin E status^41.

[3] = tested on: hepatic mitochondria; experiment: Lipid-conjugated dienes of hepatic mitochondria (lipid peroxidation); type: in vivo, male Sprague-Dawley rats
Experimental: Hepatic Mitochondria Isolation
Mitochondria were isolated from 10 grams of fresh liver from individual rats by a modification of a previously described method^27. Briefly, the liver was gently homogenized in a loose-fitting Potter-Elvehjm homogenizer in buffer containing 225 mM mannitol, 70 mM sucrose, 3 mM KH2 PO4, 2mM EDTA, 0.1% BSA, 5 mM MgCl2 (pH 7.0), filtered through cheesecloth and centrifuged at 400g×10 minutes. The supernatant was centrifuged at 10,000g for 10 minutes. The supernatant was aspirated and the pellet resuspended and centrifuged at 10,000g for 10 minutes. The resulting mitochondrial pellet was resuspended in 15 ml of buffer, divided into three tubes and added to digitonin (Sigma Chemical Company, St Louis, Mo., 0.29 mg for each gram of original liver) on wet ice×20 minutes, in order to minimize any contamination by lysosomes^28. The resulting mitochondrial preparation was washed two times in the original buffer and centrifuged at 10,000g for 10 minutes. Samples of the pellet were taken for enzyme marker analysis. Two more washes were then performed using a buffer containing 50 mM MOPS/100 mM KCI, yielding the final mitochondrial pellet.
Fresh mitochondria were analyzed for lipid peroxidation as an index of oxidant damage by the lipid-conjugated diene method of Recknagel and Ghoshal^35 with the modification of Bacon et al^36. Briefly, lipids were extracted from mitochondria pellets with chloroform and methanol (2:1, vol/vol), and the lipid in chloroform was dried under a stream of oxygen-free nitrogen^27. The dried lipid was redissolved in 1.5 ml of spectrophotometric grade cyclohexane. Absorbance from 220 to 275 nm was recorded against a cyclohexane blank on a Lambda 2 UV/is Spectrometer (Perkin-Elmer Corp., Norwalk, Conn.). Lipid concentration was approximately 0.5 mg/mi of cyclohexane. After the UV measurements, a 250 μl aliquot from each sample was analyzed for total lipid content by the method of Chiang et al.^37, and absorbance measurements were normalized to a denominator of 1.0 mg lipid per ml of cyclohexane. Lipid peroxidation was estimated by calculating the difference in absorption at 233 nm (the peak absorbance for conjugated dienes) between each rat and the mean of the values from control rats.
Because serum AST and ALT concentrations peaked at 4 hours, further evaluation of liver injury was performed at that time point Total concentrations (conjugated+free bile acids) of individual bile acids were measured in serum obtained at 4 hours by gas chromatography-mass spectroscopy (GC-MS), as previously described^30. Briefly, after serum samples were extracted with the addition of the internal standard 7-alpha, 12-alpha, dihydroxy-5 beta cholanic acid, trimethylsilyl esterification was performed. Individual bile acids were then quantified by GC or GC-MS using a Hewlett-Packard 5790 flame ionization detector equipped with a 30 meter DB-1 capillary column with internal diameter of 0.25 mm and a film thickness of 0.25 micrometers (J & W Scientific, Folsom, Calif.). For GC-MS measurements, a Hewlett-Packard 5970-A mass selective detector operating in selective ion monitoring mode was used. Results were expressed as μmol/L for each individual bile acid.
Rats were divided into two treatment groups. One group was pretreated with parenteral Vitamin E (all-rac-alpha tocopherol, Ephynal, Hoffmann-LaRoche,Nutley, N.J.). The other group was not pretreated. […]

Hepatic mitochondrial lipid-conjugated dienes, change versus vehicle ([3]; 4 h after TCDC 10 μmol/100 gram): significant elevations | Lipid-conjugated dienes ([3]; Control/TCDC, n = 13, 4 h): 0.24 ± 0.02 delta abs. 233 nm/mg lipid
SMILES: C[C@H](CCC(=O)NCCS(=O)(=O)O)[C@H]1CC[C@H]2[C@@H]3[C@H](O)C[C@@H]4C[C@H](O)CC[C@]4(C)[C@H]3CC[C@]12C [TCDC, taurochenodeoxycholic acid]
Histology of the liver ([1]; 4 h after TCDC 10 μmol/100 gram weight): mild hepatocyte swelling, variable necrosis of individual hepatocytes, mild portal tract infiltration with lymphocytes without bile duct injury, and accumulation of smooth eosinophilic globules | Reversibility of hepatocyte injury ([1]; TCDC 10 μmol/100 gram weight, 24 h): much reduced by 24 hours after injection | Predominant histological findings of the in vivo model ([1]; rat model, TCDC): Hepatocyte swelling and a mild degree of cellular necrosis | ALT [2]: 1111 ± 213 IU/L | AST [2]: 2472 ± 505 IU/L | Bilirubin [2]: 0.4 ± 0.1 mg/dL
